Measured values: patent US9687522B2, “Methods of treating a subject afflicted with an autoimmune disease using predictive biomarkers of clinical response to glatiramer acetate therapy in multiple sclerosis” (TEVA PHARMACEUTICAL INDUSTRIES, LTD., priority 2010, dated 2017)

Assays:
[1] = system: BDNF; experiment: BDNF by ELISA in supernatant of GA-stimulated PBMC; assay type: cell-based, human
Protocol: (§1) Approximately 60 cc of blood was obtained by venipuncture from each MS patient pre-treatment and at successive time points during treatment (3 months, 6 months, 9-12 months and 24 months). PBMC were purified using Ficoll-Hypaque gradients as described in the supplier's protocol (ICN Biomedicals Inc. Ohio, USA). Samples from collaborating centers were sent via overnight FedEx™ delivery at room temperature and processed immediately upon arrival.
2×10^5 PBMC/well were seeded in 96 well U-bottom micro titer plate in the absence of antigen (unstimulated condition) (US) or the presence of GA at 40 and 100 μg/ml (Teva Pharmaceutical Industries, Ltd., Israel), tetanus toxoid (TT 5 μg) obtained from UMASS (University of Mass, Worcester, Mass.). The latter was used as a control antigen. Supernatants were collected from cultured cells at days 1, 3 and 5 for various assays. After 5 days, 1 μCi ^3H-thymidine was added. […] Incorporated radioactivity was measured using a liquid Scintillation counter (Wallac MicroBeta Trilux, PerkinElmer, Boston, Mass.).
Interleukin-18 and caspase-1 levels were detected by human ELISA kits (Sandwich ELISA, Bender Nedaystems, USA). […] TGF-β, TNF-α, IL-4, IFN-γ, IL-17 and IL-10 levels were detected by human ELISA kits from ebioscience (San Diego Calif., 92121 USA). […] BDNF was detected by the Human BDNF ELISA kit from Chemicon International (catalog #CYT306). […]

[2] = system: IL-4; experiment: IL-4 ELISPOT in ex-vivo PBMC of GA-treated MS patients; assay type: cell-based, human; set-up: unit not given here; settings: CD3/CD28 stimulated PBMC
Description: as §1
(§2) Human IFN-γ (Th1 indicator) and IL-4 (Th2 indicator) were measured by the ELISPOT assay according to the manufacturer's protocol (BD Biosciences, San Diego, Calif., USA). Briefly, ELISPOT plates (PVDF plate, Millipore Corporation, MA, USA) were coated with 100 μl/well of 5 μg/ml capture antibody at 4° C. over night. The plates were then washed with PBS, and incubated with 200 μl/well of blocking solution (culture medium) for 2 hours. PBMC (2×10^5 cells/well for IFN-γ and 4×10^5 cells/well for IL-4 detection) and antigen (GA 40 and 100 μg/ml, TT 5 μg/ml, CD3Ab (2.5 μg/ml)/CD28 Ab (1 μg/ml)) was added and cultured overnight at 37° C. in a 5% CO2 incubator. Samples were tested in triplicate wells in response to each antigen. After overnight culture, the plates were washed twice with deionized water and three times with PBS, then incubated with 100 μl of 2.0 μg/ml biotinylated antibody for 2 hours at room temperature. The plates were then washed three times with wash buffer (0.05% Tween-20 PBS), and incubated with 100 μl of 1:100 dilution of Avidin-HRP for 1 hour at room temperature and washed three times with wash buffer. Finally 100 μl of AEC (3-amino-9-ethyl-carbazole) substrate was added and the reaction was stopped by washing plates with distilled water. Spots were counted and analyzed by CTL Analyzers LLC ELISPOT Plate Reader (Cleveland, Ohio, USA).

[3] = system: IL-4/IFN-γ ratio; experiment: IL-4/IFN-γ ratio by ELISPOT in ex-vivo PBMC of GA-treated MS patients; assay type: cell-based, human; settings: for IL-4/IFN-γ RATIO (ELISPOT): CD3/CD28 stimulated PBMC
Description: as §1, §2

[4] = system: IL-18; experiment: Serum IL-18 by ELISA in GA-treated MS patients; assay type: in vivo, human
Description: as §1
(§3) Interleukin-18 and caspase-1 levels were detected by human ELISA kits (Sandwich ELISA, Bender Nedaystems, USA). The sensitivity of the ELISA was 9.2 and 3.3 pg/ml for IL-18 and caspase-1 respectively. TGF-β, TNF-α, IL-4, IFN-γ, IL-17 and IL-10 levels were detected by human ELISA kits from ebioscience (San Diego Calif., 92121 USA). The sensitivity of the ebioscience kits were 60 pg/ml, 4 pg/ml, 2 pg/ml, 4 pg/ml, 4 pg/ml and 2 pg/ml respectively. BDNF was detected by the Human BDNF ELISA kit from Chemicon International (catalog #CYT306). The sensitivity of the BDNF ELISA was 7.8 pg/ml. […] Duplicates should be within 20% of the mean.

[5] = system: IL-4; experiment: Serum IL-4 by ELISA in GA-treated MS patients; assay type: in vivo, human
Description: as §1, §3

[6] = system: PBMC; experiment: Lymphoproliferation assay (3H-thymidine) of ex-vivo PBMC; assay type: cell-based, human
Protocol: as §1
2×10^5 PBMC/well were seeded in 96 well U-bottom micro titer plate in the absence of antigen (unstimulated condition) (US) or the presence of GA at 40 and 100 μg/ml (Teva Pharmaceutical Industries, Ltd., Israel), tetanus toxoid (TT 5 μg) obtained from UMASS (University of Mass, Worcester, Mass.). The latter was used as a control antigen. Supernatants were collected from cultured cells at days 1, 3 and 5 for various assays. After 5 days, 1 μCi ^3H-thymidine was added. Cells were harvested 18 hours later using TOMTEC cell harvester (TOMTEC, Hamden Conn.). Incorporated radioactivity was measured using a liquid Scintillation counter (Wallac MicroBeta Trilux, PerkinElmer, Boston, Mass.).

Glatiramer acetate [GA]
BDNF production with GA used as ex-vivo stimulus ([1]; GA versus TT as stimulus of PBMC): slightly higher level compared to TT
supernatant BDNF levels from GA-stimulated PBMCs ([1]; GA-R group, 3 months, p=0.01, not in the GA HR/NR group): significant increase at 3 months during treatment compared to baseline
IL-4 expression (ELISPOT) ([2]; HR/NR, 3 mo): 14 ± 4
IL-4 expression (ELISPOT) ([2]; HR/NR, 6 mo): 20 ± 6
IL-4 expression (ELISPOT) ([2]; HR/NR, 9-12 mo): 23 ± 5
IL-4 expression (ELISPOT) ([2]; HR/NR, 24 mo): 21 ± 3.5
IL-4 expression (ELISPOT) ([2]; HR/NR, Baseline): 39 ± 9
IL-4 expression (ELISPOT) ([2]; R, 3 mo): 44 ± 7.4
IL-4 expression (ELISPOT) ([2]; R, 6 mo): 45 ± 7.3
IL-4 expression (ELISPOT) ([2]; R, 9-12 mo): 39 ± 5.8
IL-4 expression (ELISPOT) ([2]; R, 24 mo): 36 ± 7.2
IL-4 expression (ELISPOT) ([2]; R, Baseline): 35 ± 5.9
IL-4/IFN-γ RATIO (ELISPOT) ([3]; HR/NR, 3 mo): 0.08 ± 0.02
IL-4/IFN-γ RATIO (ELISPOT) ([3]; HR/NR, 6 mo): 0.06 ± 0.05
IL-4/IFN-γ RATIO (ELISPOT) ([3]; HR/NR, 9-12 mo): 0.08 ± 0.05
IL-4/IFN-γ RATIO (ELISPOT) ([3]; HR/NR, 24 mo): 0.10 ± 0.05
IL-4/IFN-γ RATIO (ELISPOT) ([3]; HR/NR, Baseline): 0.12 ± 0.05
IL-4/IFN-γ RATIO (ELISPOT) ([3]; R, 3 mo): 0.24 ± 0.04
IL-4/IFN-γ RATIO (ELISPOT) ([3]; R, 6 mo): 0.32 ± 0.07
IL-4/IFN-γ RATIO (ELISPOT) ([3]; R, 9-12 mo): 0.34 ± 0.08
IL-4/IFN-γ RATIO (ELISPOT) ([3]; R, 24 mo): 0.25 ± 0.07
IL-4/IFN-γ RATIO (ELISPOT) ([3]; R, Baseline): 0.11 ± 0.02
IL-4/IFN-γ ratio in unstimulated and in anti-CD3/CD28 stimulated PBMC ([3]; GA-R, during treatment versus pre-treatment): significantly higher among GA-R during treatment compared to pre-treatment levels
Serum IL-18 level ([4]; HR/NR, 3 mo): 284 ± 35 pg/mL
Serum IL-18 level ([4]; HR/NR, 6 mo): 310 ± 39 pg/mL
Serum IL-18 level ([4]; HR/NR, 9-12 mo): 283 ± 22 pg/mL
Serum IL-18 level ([4]; HR/NR, 24 mo): 265 ± 15 pg/mL
Serum IL-18 level ([4]; HR/NR, Pre-Rx): 300 ± 29 pg/mL
Serum IL-18 level ([4]; R, 3 mo): 279 ± 23 pg/mL
Serum IL-18 level ([4]; R, 6 mo): 189 ± 26 pg/mL
Serum IL-18 level ([4]; R, 9-12 mo): 262 ± 15 pg/mL
Serum IL-18 level ([4]; R, 24 mo): 260 ± 12 pg/mL
Serum IL-18 level ([4]; R, Pre-Rx): 304 ± 26 pg/mL
Δ IL-18 6 months, Median (Non-Responders) ([4]; serum, change from baseline): 2
Δ IL-18 6 months, Median (Responders) ([4]; serum, change from baseline): −102
Serum IL-4 level ([5]; HR/NR, 3 mo): 13 ± 0.92 pg/mL
Serum IL-4 level ([5]; HR/NR, 6 mo): 13 ± 1.4 pg/mL
Serum IL-4 level ([5]; HR/NR, 9-12 mo): 18 ± 1.4 pg/mL
Serum IL-4 level ([5]; HR/NR, 24 mo): 16 ± 1 pg/mL
Serum IL-4 level ([5]; HR/NR, Pre-Rx): 14 ± 0.70 pg/mL
Serum IL-4 level ([5]; R, 3 mo): 16 ± 0.70 pg/mL
Serum IL-4 level ([5]; R, 6 mo): 17 ± 0.81 pg/mL
Serum IL-4 level ([5]; R, 9-12 mo): 17 ± 1.8 pg/mL
Serum IL-4 level ([5]; R, 24 mo): 16 ± 1.0 pg/mL
Serum IL-4 level ([5]; R, Pre-Rx): 16 ± 0.60 pg/mL
Δ IL-4 6 months, Median (Non-Responders) ([5]; serum, change from baseline): −1.5
Δ IL-4 6 months, Median (Responders) ([5]; serum, change from baseline): 1
ex-vivo PBMC proliferative response over the course of GA treatment ([6]; antigens GA 40 and 100 μg/ml, TT 5 μg/ml, ΔCPM): initial increase in the proliferative response to GA and TT at 3 months during treatment followed by a decline after 6 months of treatment
PBMC proliferation, GA-R versus GA-HR/NR ([6]; before or during treatment at 3, 6, 12 months or 2 years, p >0.05): no difference in PBMC proliferation to GA or TT between GA-R and GA-HR/NR
